Test results from paper PMC11243685, “Synthesis and Enzymatic Evaluation of a Small Library of Substituted Phenylsulfonamido-Alkyl Sulfamates towards Carbonic Anhydrase II” (Molecules, 2024).

Key:
[1] = target: T1, bovine carbonic anhydrase II (Bos taurus, UniProt P00921); test: Enzymatic assay of bCA II inhibition, absorbance at 415 nm; format: biochemical; conditions: for inhibition at 1 µM: 1 μM concentration of the inhibitor, triplicate with three technical replicas; for Ki: CA II, from Lineweaver–Burk, Dixon and Cornish Bowden plots, read-out: Inhibition constant Ki;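 as to all read-outs here: enzyme is carbonic anhydrase II isolated from bovine erythrocytes, with its activity followed photometrically at 415 nm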
T1 construct: carbonic anhydrase II (bCAII, ≥3000 W-A units/mg from bovine erythrocytes) from Sigma; purchased Sigma (Taufkirchen, Germany); host or cells: isolated from bovine erythrocytes
T1 sequence (P00921 whole entry): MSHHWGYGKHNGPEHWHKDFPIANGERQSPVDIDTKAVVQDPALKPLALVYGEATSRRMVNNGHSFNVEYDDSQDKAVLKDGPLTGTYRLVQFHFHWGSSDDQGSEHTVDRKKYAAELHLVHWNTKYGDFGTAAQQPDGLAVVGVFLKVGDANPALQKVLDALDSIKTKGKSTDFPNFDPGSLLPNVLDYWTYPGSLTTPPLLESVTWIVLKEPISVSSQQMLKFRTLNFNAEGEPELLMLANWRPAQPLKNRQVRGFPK
Method: The enzymatic assays have been performed with carbonic anhydrase II (bCAII, ≥3000 W-A units/mg from bovine erythrocytes) from Sigma (Taufkirchen, Germany) using a BMG Labtech Spectrostar Omega apparatus (BMG Labtech, Ortenberg, Germany) measuring λ = 415 nm. Conditions have been described previously [72]. Ki and Ki′ values were determined from Lineweaver–Burk, Dixon and Cornish Bowden plots, respectively.

Row | Structure (SMILES) | melting point | inhibition at 1 µM ([1]; bCA II) | Ki [1] | mode of inhibition ([1]; bCA II)
1 | NS(=O)(=O)OCCCNS(=O)(=O)c1ccccc1 [2b, 3-(Phenylsulfonamido]propyl Sulfamate] | 64 to 66 °C | 39.9 ± 0.4% |  | 
2 | NS(=O)(=O)OCCCCCCNS(=O)(=O)c1ccccc1 [5b, 6-(Phenylsulfonamido]hexyl Sulfamate] | 64 to 66 °C | 56 ± 0.5% |  | 
3 | NS(=O)(=O)OCCCCCCCNS(=O)(=O)c1ccccc1 [6b, 7-(Phenylsulfonamido]heptyl Sulfamate] | 59 to 61 °C | 56 ± 0.8% |  | 
4 | NS(=O)(=O)OCCCCCCCCCNS(=O)(=O)c1ccccc1 [8b, 9-(Phenylsulfonamido]nonyl Sulfamate] | 82 to 84 °C | 55.4 ± 0.7% |  | 
5 | NS(=O)(=O)OCCCCCCCCCCCNS(=O)(=O)c1ccccc1 [10b, 11-(Phenylsulfonamido]undecyl Sulfamate] | 95 to 97 °C | 7.2 ± 0.9% |  | 
6 | Cc1ccc(S(=O)(=O)NCCOS(N)(=O)=O)cc1 [12b, 2-[(4-Methylphenyl)sulfonamido]ethyl Sulfamate] | 79 to 81 °C | 75.8 ± 0.6% | 760 ± 30 nM | 
7 | Cc1ccc(S(=O)(=O)NCCCOS(N)(=O)=O)cc1 [13b, 3-[(4-Methylphenyl)sulfonamido]propyl Sulfamate] | 86 to 87 °C | 63.8 ± 0.8% |  | 
8 | Cc1ccc(S(=O)(=O)NCCCCOS(N)(=O)=O)cc1 [14b, 4-[(4-Methylphenyl)sulfonamido]butyl Sulfamate] | 66 to 68 °C | 42.9 ± 0.1% |  | 
9 | Cc1ccc(S(=O)(=O)NCCCCCOS(N)(=O)=O)cc1 [15b, 5-[(4-Methylphenyl)sulfonamido]pentyl Sulfamate] | 94 to 95 °C | 58.9 ± 0.2% |  | 
10 | Cc1ccc(S(=O)(=O)NCCCCCCO)cc1 [16a, N-(6-Hydroxyhexyl)-4-methylbenzene Sulfonamide] | 49 to 51 °C |  |  | 
11 | Cc1cccc(S(=O)(=O)NCCOS(N)(=O)=O)c1 [19b, 2-[(3-Methylphenyl)sulfonamido]ethyl Sulfamate] | 36 to 38 °C | 59.5 ± 0.1% |  | 
12 | Cc1cccc(S(=O)(=O)NCCCOS(N)(=O)=O)c1 [20b, 3-[(3-Methylphenyl)sulfonamido]propyl Sulfamate] | 73 to 74 °C | 48.4 ± 0.1% |  | 
13 | Cc1cccc(S(=O)(=O)NCCCCOS(N)(=O)=O)c1 [21b, 4-[(3-Methylphenyl)sulfonamido]butyl Sulfamate] | 62 to 64 °C | 32.2 ± 0.6% |  | 
14 | Cc1cccc(S(=O)(=O)NCCCCCCOS(N)(=O)=O)c1 [23b, 6-[(3-Methylphenyl)sulfonamido]hexyl Sulfamate] | 74 to 75 °C | 51.8 ± 0.7% |  | 
15 | Cc1cccc(S(=O)(=O)NCCCCCCCOS(N)(=O)=O)c1 [24b, 7-[(3-Methylphenyl)sulfonamido]heptyl Sulfamate] | 55 to 57 °C | 27.1 ± 0.9% |  | 
16 | Cc1ccccc1S(=O)(=O)NCCO [26a, N-(2-Hydroxyethyl)-2-methylbenzene Sulfonamide] | 73 to 74 °C |  |  | 

Row | Structure (SMILES) | melting point | inhibition at 1 µM ([1]; bCA II) | Ki [1] | mode of inhibition ([1]; bCA II)
17 | Cc1ccccc1S(=O)(=O)NCCOS(N)(=O)=O [26b, 2-[(2-Methylphenyl)sulfonamido]ethyl Sulfamate] | 70 to 72 °C | 69.1 ± 0.7% | 1100 ± 30 nM | 
18 | Cc1ccccc1S(=O)(=O)NCCCOS(N)(=O)=O [27b, 3-[(2-Methylphenyl)sulfonamido]propyl Sulfamate] | 68 to 70 °C | 50 ± 0.8% |  | 
19 | CC(C)c1ccc(S(=O)(=O)NCCCCCOS(N)(=O)=O)cc1 [36b, 5-[(4-Isopropylphenyl)sulfonamido]pentyl Sulfamate] | 95 to 97 °C | 40.8 ± 0.6% |  | 
20 | CC(C)c1ccc(S(=O)(=O)NCCCCCCOS(N)(=O)=O)cc1 [37b, 6-[(4-Isopropylphenyl)sulfonamido]hexyl Sulfamate] | 102 to 103 °C | 45.9 ± 0.7% |  | 
21 | CC(C)c1ccc(S(=O)(=O)NCCCCCCCOS(N)(=O)=O)cc1 [38b, 7-[(4-Isopropylphenyl)sulfonamido]heptyl Sulfamate] | 70 to 72 °C | 30.3 ± 0.1% |  | 
22 | CC(C)c1ccc(S(=O)(=O)NCCCCCCCCOS(N)(=O)=O)cc1 [39b, 8-[(4-Isopropylphenyl)sulfonamido]octyl Sulfamate] | 69 to 70 °C | 28.1 ± 0.5% |  | 
23 | CC(C)(C)c1ccc(S(=O)(=O)NCCO)cc1 [49a, 4-(tert-Butyl)-N-(2-hydroxyethyl)benzene Sulfonamide] | 75 to 77 °C |  |  | 
24 | CC(C)(C)c1ccc(S(=O)(=O)NCCOS(N)(=O)=O)cc1 [49b, 2-[(4-(tert-Butyl)phenyl)sulfonamido]ethyl Sulfamate] | 92 to 93 °C | 75.6 ± 0.4% | 670 ± 50 nM | competitive inhibitor
25 | CC(C)(C)c1ccc(S(=O)(=O)NCCCOS(N)(=O)=O)cc1 [50b, 3-[(4-(tert-Butyl)phenyl)sulfonamido]propyl Sulfamate] | 85 to 86 °C | 63.4 ± 0.6% |  | 
26 | CC(C)(C)c1ccc(S(=O)(=O)NCCCCCO)cc1 [52a, 4-(tert-Butyl)-N-(5-hydroxypentyl)benzene Sulfonamide] | 53 to 54 °C |  |  | 
27 | CC(C)(C)c1ccc(S(=O)(=O)NCCCCCCO)cc1 [53a, 4-(tert-Butyl)-N-(6-hydroxyhexyl)benzene Sulfonamide] | 53 to 54 °C |  |  | 
28 | CC(C)(C)c1ccc(S(=O)(=O)NCCCCCCCO)cc1 [54a, 4-(tert-Butyl)-N-(7-hydroxyheptyl)benzene Sulfonamide] | 51 to 52 °C |  |  | 
29 | CC(C)(C)c1ccc(S(=O)(=O)NCCCCCCCCO)cc1 [55a, 4-(tert-Butyl)-N-(8-hydroxyoctyl)benzene Sulfonamide] | 69 to 71 °C |  |  | 
30 | CC(C)(C)c1ccc(S(=O)(=O)NCCCCCCCCCO)cc1 [56a, 4-(tert-Butyl)-N-(9-hydroxynonyl)benzene Sulfonamide] | 69 to 70 °C |  |  | 
31 | O=S(=O)(NCCCCCCCCO)c1ccc(C23CC4CC(CC(C4)C2)C3)cc1 [77a, 4-(Adamantan-1-yl)-N-(8-hydroxyoctyl)benzene Sulfonamide] | 101 to 102 °C |  |  | 
32 | O=S(=O)(NCCCCCCCCCCO)c1ccc(C23CC4CC(CC(C4)C2)C3)cc1 [79a, 4-(Adamantan-1-yl)-N-(10-hydroxydecyl)benzene Sulfonamide] | 76 to 79 °C |  |  | 

Now from value to molecule:

Row | melting point | inhibition at 1 µM ([1]; bCA II) | Ki [1] | mode of inhibition ([1]; bCA II) | Structure (SMILES)
33 | 77 to 78 °C | 60.2 ± 0.7% |  |  | NS(=O)(=O)OCCCCCCCCNS(=O)(=O)c1ccccc1 [7b, 8-(Phenylsulfonamido]octyl Sulfamate]
34 | 89 to 91 °C | 10.7 ± 0.4% |  |  | NS(=O)(=O)OCCCCCCCCCCNS(=O)(=O)c1ccccc1 [9b, 10-(Phenylsulfonamido]decyl Sulfamate]
35 | 102 to 103 °C | 5.9 ± 0.9% |  |  | NS(=O)(=O)OCCCCCCCCCCCCNS(=O)(=O)c1ccccc1 [11b, 12-(Phenylsulfonamido]dodecyl Sulfamate]
36 | 49 to 50 °C | 40.3 ± 0.7% |  |  | Cc1ccc(S(=O)(=O)NCCCCCCOS(N)(=O)=O)cc1 [16b, 6-[(4-Methylphenyl)sulfonamido]hexyl Sulfamate]
37 | 85 to 86 °C | 42.8 ± 0.5% |  |  | Cc1ccc(S(=O)(=O)NCCCCCCCOS(N)(=O)=O)cc1 [17b, 7-[(4-Methylphenyl)sulfonamido]heptyl Sulfamate]
38 | 87 to 88 °C |  |  |  | Cc1ccc(S(=O)(=O)NCCCCCCCCO)cc1 [18a, N-(8-Hydroxyoctyl)-4-methylbenzene Sulfonamide]
39 | 98 to 100 °C | 54.7 ± 0.6% |  |  | Cc1ccc(S(=O)(=O)NCCCCCCCCOS(N)(=O)=O)cc1 [18b, 8-[(4-Methylphenyl)sulfonamido]octyl Sulfamate]
40 | 67 to 68 °C | 49.1 ± 0.2% |  |  | Cc1cccc(S(=O)(=O)NCCCCCOS(N)(=O)=O)c1 [22b, 5-[(3-Methylphenyl)sulfonamido]pentyl Sulfamate]
41 | 54 to 56 °C | 38.8 ± 0.1% |  |  | Cc1cccc(S(=O)(=O)NCCCCCCCCOS(N)(=O)=O)c1 [25b, 8-[(3-Methylphenyl)sulfonamido]octyl Sulfamate]
42 | 81 to 82 °C | 63.2 ± 0.4% | 840 ± 20 nM |  | CC(C)c1ccc(S(=O)(=O)NCCOS(N)(=O)=O)cc1 [33b, 2-[(4-Isopropylphenyl)sulfonamido]ethyl Sulfamate]
43 | 83 to 84 °C | 60.3 ± 0.9% |  |  | CC(C)c1ccc(S(=O)(=O)NCCCOS(N)(=O)=O)cc1 [34b, 3-[(4-Isopropylphenyl)sulfonamido]propyl Sulfamate]
44 | 95 to 97 °C | 43.7 ± 0.4% |  |  | CC(C)c1ccc(S(=O)(=O)NCCCCOS(N)(=O)=O)cc1 [35b, 4-[(4-Isopropylphenyl)sulfonamido]butyl Sulfamate]
45 | 58 to 60 °C |  |  |  | CC(C)(C)c1ccc(S(=O)(=O)NCCCCO)cc1 [51a, 4-(tert-Butyl)-N-(4-hydroxybutyl)benzene Sulfonamide]
46 | 100 to 102 °C | 44.9 ± 0.4% |  |  | CC(C)(C)c1ccc(S(=O)(=O)NCCCCOS(N)(=O)=O)cc1 [51b, 4-[(4-(tert-Butyl)phenyl)sulfonamido]butyl Sulfamate]
47 | 75 to 76 °C |  |  |  | CC(C)(C)c1ccc(S(=O)(=O)NCCCCCCCCCCO)cc1 [57a, 4-(tert-Butyl)-N-(10-hydroxydecyl)benzene Sulfonamide]
48 | 87 to 88 °C |  |  |  | O=S(=O)(NCCCCCCO)c1ccc(C2CCCCC2)cc1 [72a, 4-Cyclohexyl-N-(6-hydroxyhexyl)benzene Sulfonamide]
49 | 84 to 85 °C |  |  |  | O=S(=O)(NCCCCCCCCCO)c1ccc(C23CC4CC(CC(C4)C2)C3)cc1 [78a, 4-(Adamantan-1-yl)-N-(9-hydroxynonyl)benzene Sulfonamide]
